Reference: publication PMC6152209, “Synthesis, Characterization and In Vitro Evaluation of a Novel Glycol Chitosan-EDTA Conjugate to Inhibit Aminopeptidase-Mediated Degradation of Thymopoietin Oligopeptides” (Molecules : A Journal of Synthetic Chemistry and Natural …, 2017)
Read-outs that look alike come from different tables or passages of the source. Residues, ends and D or L forms follow the SMILES beside them.

What was measured:
[1] = cobalt ion chelation-mediated fluorescence recovery of calcein; assay type: physicochemical; conditions: calcein 0.0625 µg/mL, calcein:cobalt dichloride 1:1 molar, normalized maximum fluorescence emission F/F0, excitation 490 nm
Text: It is well known that calcein fluorescence can be strongly quenched by cobalt ions at physiological pH, while removal of cobalt ion from the complex by EDTA-mediated chelation will lead to a significant increase in fluorescence intensity. Thus, the chelating capacity of the resultant conjugate can be determined by measuring the cobalt ion-chelating-mediated fluorescence recovery of calcein. […] The excitation wavelength of calcein was set at 490 and its emission was monitored in the range of 500–650 nm. The slits of excitation and emission were set at 5 and 3 nm, respectively. All background effects were subtracted. In addition, the same experiment was done in the presence of EDTA.

leucine aminopeptidase [2] = molecular target: T1, leucine aminopeptidase (Sus scrofa, UniProt P15145); conditions: pH 7
T1 sequence (P15145 1-963): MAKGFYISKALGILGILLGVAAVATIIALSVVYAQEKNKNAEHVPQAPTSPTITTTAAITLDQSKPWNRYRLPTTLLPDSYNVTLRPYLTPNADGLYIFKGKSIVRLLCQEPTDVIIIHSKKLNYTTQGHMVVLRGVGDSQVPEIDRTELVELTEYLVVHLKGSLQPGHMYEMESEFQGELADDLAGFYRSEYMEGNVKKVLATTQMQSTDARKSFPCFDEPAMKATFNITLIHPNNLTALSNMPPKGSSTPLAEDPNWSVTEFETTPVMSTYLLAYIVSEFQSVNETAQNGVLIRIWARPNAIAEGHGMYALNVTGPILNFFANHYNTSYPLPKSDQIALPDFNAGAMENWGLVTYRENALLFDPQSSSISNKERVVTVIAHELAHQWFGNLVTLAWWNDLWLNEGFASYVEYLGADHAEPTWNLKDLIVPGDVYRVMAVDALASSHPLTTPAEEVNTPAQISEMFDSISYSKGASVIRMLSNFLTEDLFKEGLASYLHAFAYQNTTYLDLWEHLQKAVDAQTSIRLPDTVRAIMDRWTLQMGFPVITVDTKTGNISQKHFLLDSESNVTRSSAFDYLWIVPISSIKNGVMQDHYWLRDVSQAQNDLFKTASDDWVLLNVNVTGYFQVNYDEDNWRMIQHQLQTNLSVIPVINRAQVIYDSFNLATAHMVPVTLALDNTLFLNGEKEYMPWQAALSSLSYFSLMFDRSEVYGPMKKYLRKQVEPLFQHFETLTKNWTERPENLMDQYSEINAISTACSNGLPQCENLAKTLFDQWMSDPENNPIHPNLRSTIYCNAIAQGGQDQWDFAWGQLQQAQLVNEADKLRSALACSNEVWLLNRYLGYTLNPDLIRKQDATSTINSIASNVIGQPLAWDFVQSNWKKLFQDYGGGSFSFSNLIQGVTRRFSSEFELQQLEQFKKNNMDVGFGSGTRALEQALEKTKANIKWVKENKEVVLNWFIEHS
Protocol: (§1) After a 30-min enzymatic activation, the stock solutions of three thymopoietin oligopeptides were added into the above solution and made the final concentration of peptides at 0.1 mM. At specified time intervals after adding peptide, 100 µL aliquots were sampled and diluted with an equal volume of 1 M perchloric acid incubated in an ice bath to stop reaction. Meanwhile, a 100 mL aliquot of the abovementioned buffer was added to the incubation medium. […] All experiments were replicated at least three times.
(§2) Cldeg was determined by linear regression analysis from plots of ΣM versus the AUC at different time points [3, 11].

leucine aminopeptidase [3] = molecular target: T1, leucine aminopeptidase; test: leucine aminopeptidase-mediated degradation of thymopoietin oligopeptides (degradation kinetics and clearance); conditions: peptide 0.1 mM, LAP 0.01 U/mL, Krebs phosphate buffer pH 7.0, 37 °C, RP-HPLC, Cldeg from ΣM versus AUC, at least three replicates
Protocol: as §1, §2

With `O=C(O)CN(CCN(CC(=O)O)CC(=O)O)CC(=O)O` [EDTA, ethylene diamine tetraacetic acid] as the compound, how does the “EDTA group concentration above which the calcein fluorescence plateau was reached (almost complete removal of cobalt ions from the calcein/cobalt ion complex)” value [1] read?
Its value is “higher than 0.67 µM”.

Which “order of susceptibility to leucine aminopeptidase (degradation clearance)” value (leucine aminopeptidase [2]) does the source give for `N=C(N)NCCC[C@H](N)C(=O)N[C@@H](CCCCN)C(=O)N[C@@H](CC(=O)O)C(=O)O` [TP3, Thymotrinan] (H-Arg-Lys-Asp-OH) here?
Its value is “TP4 > TP5 > TP3”.

Which “order of susceptibility to leucine aminopeptidase (degradation clearance)” value (leucine aminopeptidase [3]) does the source give for `CC(C)[C@H](NC(=O)[C@H](CC(=O)O)NC(=O)[C@H](CCCCN)NC(=O)[C@@H](N)CCCNC(=N)N)C(=O)O` [TP4, thymocartin] (H-RKDV-OH) here?
Its value is “TP4 > TP5 > TP3”.
